Reference: patent US20250387382A1, “METHODS OF TREATING ESSENTIAL TREMOR” (Praxis Precision Medicines, Inc., priority 2023, published 2025)

Tests used:
[1] = tested on: participants with moderate to severe ET; experiment: Phase 2 trial, double-blind part: safety/tolerability; format: in vivo, human
Protocol: (§1) This trial is a Phase 2 trial to evaluate the efficacy and safety/tolerability of titration of Compound 1 to 60 mg or 100 mg compared to placebo in participants with moderate to severe ET. Severity of ET in this study was defined by eligibility criteria on TETRAS-ADL, CGI-S, and TETRAS-PS items 6 and 7. This dose range finding trial is comprised of three parts. The first part was randomized, double-blinded (DB), and placebo-controlled, the second part was an optional extension that consisted of an Extension DB Lead-in Period followed by an Extension Open-label (OL) Period. Further, there was also a third part available for completers of the Day 99 visit, which third part was comprised of a blinded cross-over period (referred to as cross-over period) after re-randomization for 6 weeks, after which all completers would receive formula (I) in an open-label fashion. In part one of the trial, eligible participants were randomized to 1 of 2 dose levels of Compound 1 (60 mg or 100 mg) or to placebo. The primary objective of this trial was to evaluate the efficacy of Compound 1 compared to placebo after 56 days (end of randomized, DB, placebo-controlled part) of dosing in participants with ET with moderate to severe tremor utilizing modified ADL as the primary efficacy endpoint. Secondary and exploratory objectives include further efficacy evaluations, an evaluation of the safety and tolerability, and determination of plasma concentrations of formula (I) and its metabolites. The design of the Phase 2 trial is illustrated in FIG. 1.
Throughout the Intervention Period (Day 1 to Day 56), participants who chose to stop dosing or were required to stop dosing entered the Safety Follow-up Period. All participants were asked to return to the clinic for the Safety Follow-up Visit 14 days after their last dose of study drug except for those that chose to enroll in the optional Extension part of the trial (see below).
On Days 7, 21, 35, and 54 participants received a telephone call from site staff to ask about AEs and changes in concomitant medications.

[2] = tested on: participants with moderate to severe ET; experiment: Phase 2 trial, randomized double-blind placebo-controlled part: efficacy (TETRAS mADL, ADL, mADL11, PGI-C, CGI-S); format: in vivo, human
Excerpt: as §1, with “Severity” for “This trial is a Phase 2 trial to evaluate the efficacy and safety/tolerability of titration of Compound 1 to 60 mg or 100 mg compared to placebo in participants with moderate to severe ET. Severity”, “In part one of the trial, eligible participants were randomized to 1 of 2 dose levels of Compound 1 (60 mg or 100 mg) or to placebo.” left out
Participants who continued to meet all clinical trial entry criteria on Day 1 were randomized to receive DB treatment with Compound 1 or placebo every morning (QAM) from Day 1 through Day 56. Participants were randomized to 1 of 2 fixed-dose regimens or placebo in a 1:1:1 ratio. No dosage adjustments were allowed.
On Days 14, 28, 42, and 56, participants returned to the clinic for PK sampling, dosing, efficacy, and safety assessments. Key efficacy assessments at these visits included TETRAS-PS, TETRAS ADL, CGI-S, CGI-I, and PGI C.
Fixed titration regimens were used (Table 1). Participants were not allowed to adjust the number of tablets per day.
Selected items from the TETRAS-ADL and TETRAS-PS (or TETRAS-CUL, as appropriate) were scored in a modified manner and combined to create a TETRAS modified total score. Items 1-11 in the TETRAS ADL subscale and items 6 and 7 of the TETRAS-PS were used, with scoring adjusted so that response options 0 and 1 were combined into a single response of “0=Normal.” Further, scores of 2, 3, and 4 were adjusted to 1, 2, and 3, respectively. The TETRAS modified total score were the sum of these adjusted TETRAS-ADL and TETRAS PS items, having a possible range of 0 to 42, where larger values represent increased direct tremor impact to activities of daily living. The items that are included in the TETRAS-modified total score are illustrated in FIG. 2.
The primary efficacy measure in this clinical trial was change from baseline in mADL at day 56. Ulixacaltamide effect on individual mADL items was determined by calculating the fold-change adjusted by placebo change at Day 56 in mADL for individual mADL items. The secondary efficacy measures included change in Clinical Global Impression-Severity (CGI-S) score, Patient Global Impression-Change (PGI-C) score, TETRAS-ADL total score, TETRAS-UL score, TETRAS-CUL score and TETRAS-PS score.

**Q.** Which results are given for `CC(C)(C)NC(=O)CN1CCC(CNC(=O)c2cc(F)cc(Cl)c2)CC1` [Compound 1, N-((1-(2-(tert-butylamino)-2-oxoethyl)piperidin-4-yl)methyl)-3-chloro-5-fluorobenzamide]?
**A.** Safety profile, 60 mg vs 100 mg groups ([1]; in vivo): no significant difference in the safety profile; Severity of the majority of TEAEs ([1]; in vivo): mild-moderate; Proportion of subjects who discontinued ([1]; placebo 11%): 17%; Tolerability ([1]; titration to 60 mg or 100 mg, 56 days): well tolerated; mADL11 treatment effect relative to placebo ([2]; Day 14, participants without intention tremor): 1.03 points; LSM mADL11 change from baseline, treatment effect relative to placebo ([2]; Day 28): 1.44; TETRAS PS items (dominant hand handwriting, left and right hand spirals), improvement vs placebo ([2]; Day 56): less improvement than those receiving placebo; mADL11 LSM treatment difference vs placebo ([2]; after 56 days, 95% CI −3.565, −0.066, nominal p <0.05): −1.82; mADL and mADL11 scores vs. placebo at each scored timepoint ([2]; after day 14, FIG. 15): improvement; Magnitude of benefit on mADL11 vs placebo, 60 mg vs 100 mg groups ([2]; change from baseline versus placebo): largely similar; Modified ADL (mADL) scores in the Phase 2 trials ([2]; daily doses ranging from 20 to 120 mg for up to 56 days): reduced modified ADL (mADL) scores; mADL scores, patients showing improvement vs placebo ([2]; day 56, FIG. 9): more patients taking ulixacaltamide showed improvements; ADL score, average reduction compared to baseline ([2]; day 56, n=78): 3.6 points; ADL scored items with consistent effect relative to placebo ([2]; individual items, Day 56): 8 of 11; Patients improved on CGI-S scale ([2]; mITT): 42%; Patients improved on PGI-C scale ([2]; mITT): 47%; mADL-scored items vs baseline in ET patients who do not have intention tremor ([2]; mITT excluding intention tremor, FIGS. 18 and 19): larger improvement; Placebo-adjusted mADL excluding PS, 60 mg vs 100 mg regimens ([2]; mITT patients without intention tremor, FIG. 20): consistent effect observed across both tested dosing regimens; mADL LS mean difference vs. placebo ([2]; mITT, Day 56, p=0.126): 1.57; Modified ADL score, mean decrease ([2]; n=78, placebo 0.88 points): 2.69 points; Patients achieving at least a 3-point improvement in mADL11 ([2]; patients on propranolol and ulixacaltamide, 25% for propranolol and placebo): 48%; mADL excluding PS items, LS mean difference vs. placebo ([2]; post hoc, Day 56, mITT, p=0.042): 1.81; Treated participants with at least a 2 point improvement in total score ([2]; post-hoc responder analysis, 0.5 SD threshold, mITT): greater than 50%; Treated subjects with at least a 4 point improvement in total score ([2]; post-hoc responder analysis, 1 SD threshold, mITT): roughly 40%; Response rates vs placebo for mADL and mADL excluding PS items ([2]; post-hoc responder analysis, MCID distribution method, mITT): greater response rates; Change in TETRAS-ADL, LS mean difference vs. placebo ([2]; secondary endpoint, p=0.026): 2.53
